Data as given in patent publication US11607464B2, “Compositions and methods for the treatment and imaging of cancer” (BOARD OF REGENTS OF THE UNIVERSITY OF NEBRASKA, priority 2018, dated 2023).

What was measured:
[1] = Stability in human serum (HPLC); type: in vitro ADME
Method: 4 (370 KBq-740 kBq) in 20 μL 25% EtOH/PB (10 mM PB, pH 6.1) was added to the solution of human serum (1980 μL). The mixture was briefly vortexed and kept up to 19 hours at ambient temperature or in the cell culture incubator (37° C., 5% CO2). At selected times, a 0.5-mL aliquot of the incubated mixture was withdrawn and analyzed by HPLC.
An aliquot of the incubation mixture (0.5 mL) was treated with MeCN (0.5 mL) to precipitate proteins, vortexed and centrifuged (2,000 rpm, 15 minutes). Aliquots of the supernatant (500 μL) were acidified to pH˜6 with 0.05 M TFA (2-8 μL). The excess of MeCN was evaporated with a stream of nitrogen and 100 μL water added. This mixture was passed through a 0.2-μm filter and samples (˜100 μL, 62.5 kBq-130 kBq) were injected on HPLC system.
The HPLC analyses proceeded on Luna C N (5μ, 4.6×250 mm) column. Eluent: solvent A potassium phosphate buffer (10 mM, pH 6.1), solvent B EtOH; all samples were eluted at 0.8 mL/minute, initially with a gradient of EtOH from 30% to 70% for 30 minutes, then from 70% to 95% over the next 15 minutes with detection of radioactivity and UV at 280 nm.

NCI 60 cancer cells = experiment: NCI 60 cell five-dose screen; type: cell-based, human; conditions: NCI 60 cell five-dose screen, FIG. 5
Text: FIG. 5 provides the concentrations (nanomole/liter) required to inhibit by 50% growth of cancer cells (GI50) as measured with the National Cancer Institute (NCI) 60 cell five-dose screen assay.
The methodology and data analyses are described in detail at: dtp.cancer.gov/discovery_development/nci-60/methodology.

SK-N-SH = experiment: Extracellular and intracellular D10 of cells exposed to ^131I-4; type: cell-based, human; conditions: exposed for 48 hours
Method: (§1) The cell uptake was tested as a function of the radioactive concentration and time of exposure. With each treatment group, triplicate flasks of controls cells in medium without the radioactive drug were grown and harvested alongside treated cells. Aliquots of the radioactive medium were reserved for gamma counting to assess the initial radioactive concentration. Each treatment was tested in triplicate in at least two independent experiments. Groups of treated cells were cultured in radioactive medium for 1 hour, 24 hours, 48 hours, and 72 hours and either harvested at these times or the radioactive medium was removed and replaced with the appropriate nonradioactive medium and then flasks were returned to the incubator for additional 24 hours. Radioactive medium was collected for radioactivity determination, monolayers were washed with ice-cold PBS. Cells used in the subcellular distribution experiments were harvested by scarping and cell numbers were determined. The subcellular distribution of radioactivity was determined as described before using NE-PER™ nuclear and cytoplasmic extraction reagents (Pierce Biotechnology, Rockford, Ill.).
(§2) The cell uptake of ^131I-4 was tested as a function of the radioactive concentration and time of exposure. Groups of treated cells—BE(2)-C (neuroblastoma), SK-N-SH cells (neuroblastoma), and U-87 MG (glioblastoma)—were cultured in radioactive medium for 1 hour, 24 hours, 48 hours, and 72 hours.

BE(2)-C = experiment: as above; type: cell-based, human; conditions: exposed for 48 hours
Method: as §1, §2

U-87MG = experiment: as above; type: cell-based, human; conditions: exposed for 48 hours
Method: as §1, §2

[2] = Hematocrit and hemoglobin in treated mice; type: in vivo, athymic Ncr nu/nu mice; conditions: terminal necropsy after therapy
Method: (§3) U-87MG cells were injected subcutaneously (SQ) in the dorsal area of the female and male 8-weeks old athymic Ncr nu/nu mice (n=10 per group). When tumor volume reached ˜150 mm^3 mice were randomized into treatment group and “sham” injected control group. The average tumor volumes on day 0 were 177±55 mm^3 and 141±25 mm^3 in the treatment group and untreated controls, respectively. Therapy mice received ^131I-4 at an average dose of 14.5±2.3 MBq/mouse. Tumor volumes and body weights were measured three times per week. When one tumor in control mice exceeded the volume of 3000 mm^3 (i.e., 10% of the body weight), the experiment was terminated. Necropsy was performed. Tumor weights and tumor-associated radioactivity were determined. Blood was collected and hemoglobin and hematocrit values were measured. Tumors sections were also analyzed by macroautoradiography.
The average and median weights of tumor extirpated from untreated control mice (NT) and ^131I-4 treated mice at the terminal necropsy after the therapy was also determined (FIG. 10A). Hematocrit and hemoglobin values in ^131I-4-treated and control (NT) mice were also determined (FIGS. 10B and 10C). FIGS. 10D and 10E also show macroautoradiography of sections of two tumors extirpated.

SK-N-SH cells = experiment: Colony-forming assay, radiotoxicity of ^131I-radiolabeled drug; type: cell-based, human; conditions: for surviving fraction: 0.35 MBq/mL
Method: as §1
(§4) Alongside all treatment groups, which included: drug alone (n=4), 4 Gy XRT alone (n=4), and drug+XRT (n=4), quadruplicate flasks of controls cells in medium containing DMSO were grown and harvested under identical culture conditions. Each treatment was tested in at least two independent experiments. The final concentration of DMSO was maintained at 0.5% in all flasks including controls. Cells grown in monolayers (50%-60% confluent) were irradiated at the dose of 4 Gy delivered at the dose rate of 1.36 Gy/minute in a Mark I 68A irradiator (J. L. Shepherd & Associates, San Fernando, Calif.). At designated times after treatment, cells were harvested, their numbers determined and plated at 200 and 500 live cells in duplicate or quadruplicate T25 flasks per each treatment. Cells were left undisturbed for ˜7 days after which time fresh medium was added and colonies were allowed to grow for up to 3 weeks. Colonies were washed with PBS, fixed with methanol, and stained with crystal violet. Briefly, colonies were washed with 5 mL ice-cold PBS, followed by 5 mL PBS/methanol (1:1; v/v), and fixed in 5 mL methanol for 10 minutes. Methanol was removed and flasks were left open to dry for a few hours. Crystal violet (3 mL; 0.25% in 1:1 PBS/methanol) was added to each flask to stain cells. After approximately 10 minutes, the dye was removed, flasks were rinsed with tap water followed by distilled water and were left to dry. Colonies were counted by two independent observers using the ImageJ software.

BE(2)-C cells = experiment: as above; type: cell-based, human; conditions: for surviving fraction: BE(2)-C
Method: as §1, §4

U-87 MG xenograft = U-87 MG xenograft therapy study in athymic mice; type: in vivo, athymic Ncr nu/nu mice
Method: as §3
U-87MG cells were injected subcutaneously (SQ) in the dorsal area of the female and male 8-weeks old athymic Ncr nu/nu mice (n=10 per group). Therapy mice received ^131I-4 at an average dose of 14.5±2.3 MBq/mouse and tumor volumes and body weights were measured three times per week.

[3] = tested on: SK-N-SH neuroblastoma, BE(2)-C neuroblastoma, and U-87 MG glioblastoma; experiment: Survival of neuroblastoma and glioblastoma cells treated with ^131I-4; type: cell-based, human; conditions: 0.185 MBq/mL and 0.35 MBq/mL, FIGS. 9A-9C
Method: FIGS. 9A-9C provide images of SK-N-SH neuroblastoma (FIG. 9A), BE(2)-C neuroblastoma (FIG. 9B), and U-87 MG glioblastoma (FIG. 9C) untreated or treated with compound ^131I-4 at 0.185 MBq/mL and 0.35 MBq/mL. Graphs of the cell uptake and clonogenic survival of the cells are also provided.
The survival of human neuroblastoma and glioblastoma cells either left untreated or treated with compound ^131I-4 at 0.185 MBq/mL and 0.35 MBq/mL was determined. The cell uptake and clonogenic survival of SK-N-SH neuroblastoma, BE(2)-C neuroblastoma, and U-87 MG glioblastoma was also determined (FIGS. 9A-9C).

SMILES: COC(=O)Nc1nc2cc(C(=O)c3cccc([131I])c3)ccc2[nH]1 [^125I-4, Methyl N-[5-(3′-[^125/131I]iodobenzoyl)-1H-benzimidazol-2-yl]carbamate]
- stability in human serum, radioactive HPLC trace ([1]; 5 hours, 20° C.): exclusively non-degraded
- stability in human serum, radioactive HPLC trace ([1]; 17 hours, 37° C.): exclusively non-degraded
- stability in human serum ([1]; up to 19 hours): stable

SMILES: COC(=O)Nc1nc2ccc(C(=O)c3ccccc3)cc2[nH]1 [Compound 1, methyl N-(6-benzoyl-1H-benzimidazol-2-yl)carbamate]
- GI50, concentration to inhibit growth of cancer cells by 50% (NCI 60 cancer cells): nanomolar levels

SMILES: COC(=O)Nc1nc2cc(C(=O)c3cccc([131I])c3)ccc2[nH]1 [^131I-4, Methyl N-[5-(3′-[^125/131I]iodobenzoyl)-1H-benzimidazol-2-yl]carbamate]
- D10 extracellular (SK-N-SH): 0.410 MBq/mL
- D10 intracellular (SK-N-SH): 7,620 (530) decays/cell
- D10 intracellular (SK-N-SH; value (std err)): 0.82 (0.09) cpm/cell
- D10 extracellular (BE(2)-C): 0.176 MBq/mL
- D10 intracellular (BE(2)-C): 3,010 (395) decays/cell
- D10 intracellular (BE(2)-C; value (std err)): 0.36 (0.05) cpm/cell
- D10 extracellular (U-87MG): 0.740 MBq/mL
- D10 intracellular (U-87MG): 14,760 (2,550) decays/cell
- D10 intracellular (U-87MG; value (std err)): 1.73 (0.34) cpm/cell
- adverse reactions in the blood (hematocrit, hemoglobin) [2]: adverse reactions in the blood were not observed
- surviving fraction (SK-N-SH cells; 24 hours): 0.68±0.069
- surviving fraction (SK-N-SH cells; 48 hours): 0.08±0.04
- colonies (SK-N-SH cells; 72 hour exposure): no colonies
- surviving fraction (BE(2)-C cells; 24 hour exposure to 0.35 MBq): 0.51±0.067
- surviving fraction (BE(2)-C cells; 48 hour exposure to 0.35 MBq): 0.06±0.02
- surviving fraction (BE(2)-C cells; 72 hour exposure to 0.29 MBq): 0.010±0.004
- survivors (BE(2)-C cells; at higher concentrations): no survivors
- tumor growth compared to untreated control mice (U-87 MG xenograft; 14.5±2.3 MBq/mouse): dramatically decreases tumor growth
- xenograft volume median (U-87 MG xenograft; day 0 after treatment): 122 mm^3
- xenograft volume avg (std err) (U-87 MG xenograft; day 0 after treatment, 14.5±2.3 MBq/mouse): 177 (55) mm^3
- xenograft volume median (U-87 MG xenograft; day 4 after treatment): 169 mm^3
- xenograft volume avg (std err) (U-87 MG xenograft; day 4 after treatment, 14.5±2.3 MBq/mouse): 251 (88) mm^3
- xenograft volume median (U-87 MG xenograft; day 7 after treatment): 281 mm^3
- xenograft volume avg (std err) (U-87 MG xenograft; day 7 after treatment, 14.5±2.3 MBq/mouse): 277 (76) mm^3
- xenograft volume median (U-87 MG xenograft; day 9 after treatment): 292 mm^3
- xenograft volume avg (std err) (U-87 MG xenograft; day 9 after treatment, 14.5±2.3 MBq/mouse): 456 (165) mm^3
- xenograft volume median (U-87 MG xenograft; day 11 after treatment): 320 mm^3
- xenograft volume avg (std err) (U-87 MG xenograft; day 11 after treatment, 14.5±2.3 MBq/mouse): 444 (163) mm^3
- tumor infiltration (macroautoradiography) (U-87 MG xenograft; sections of extirpated tumors): infiltrates tumors
- cytotoxicity, cell survival [3]: cytotoxic to neuroblastoma and glioblastoma cells
